US20090221653A1, “7-(2-amino-1-hydroxy-ethyl)-4-hydroxybenzothiazol-2(3H)-one-derivatives as beta2 adrenoreceptor agonists” (AstraZeneca AB, priority 2005, published 2009)
pEC50: −log10 of the molar value. Counter-ions that a name gives are not always drawn.

How the values were obtained:
Adrenergic β2 = target: T1, Adrenergic β2 (Homo sapiens, UniProt P07550); assay: Alternative Adrenergic β2 Mediated cAMP Production in H292 cells (AlphaScreen cAMP detection); format: cell-based; conditions: for EC50: cAMP, test compounds incubated 60 minutes, 300 μM rolipram, read-out: β2 pEC50 (converted); for β2 Int Act: fraction relative to the maximum activity determined for formoterol, 60 minutes incubation
T1 construct: endogenous in cells; host or cells: H292 cells
T1 sequence (P07550 whole entry): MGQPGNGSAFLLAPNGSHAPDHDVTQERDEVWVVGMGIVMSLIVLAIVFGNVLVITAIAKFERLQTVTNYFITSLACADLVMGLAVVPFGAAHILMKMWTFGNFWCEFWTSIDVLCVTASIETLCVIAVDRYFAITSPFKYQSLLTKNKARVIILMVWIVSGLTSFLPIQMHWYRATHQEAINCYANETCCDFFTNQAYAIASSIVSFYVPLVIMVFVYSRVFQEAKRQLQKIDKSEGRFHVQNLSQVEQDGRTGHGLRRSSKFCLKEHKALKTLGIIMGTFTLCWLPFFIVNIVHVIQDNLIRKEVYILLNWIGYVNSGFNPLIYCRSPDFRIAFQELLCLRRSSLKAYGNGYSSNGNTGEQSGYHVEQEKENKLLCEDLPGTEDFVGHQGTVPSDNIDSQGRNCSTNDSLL
Method: H292 cells were grown in 225 cm2 flasks incubator at 37° C., 5% CO2 in RPMI medium containing, 10% (v/v) FBS (foetal bovine serum) and 2 mM L-glutamine.
Adherent H292 cells were removed from tissue culture flasks by treatment with Accutase™ cell detachment solution for 15 minutes. Flasks were incubated for 15 minutes in a humidified incubator at 37° C., 5% CO2. Detached cells were re-suspended in RPMI media (containing 10% (v/v) FBS and 2 mM L-glutamine) at 0.05×10^6 cells per mL. 5000 cells in 100 μL were added to each well of a tissue-culture-treated 96-well plate and the cells incubated overnight in a humidified incubator at 37° C., 5% CO2. The culture media was removed and cells were washed twice with 100 μL assay buffer and replaced with 50 μL assay buffer (HBSS solution containing 10 mM HEPES pH7.4 and 5 mM glucose). […] Cells were incubated with rolipram for 10 minutes after which time test compounds were added and the cells were incubated for 60 minutes at room temperature. […] The reaction was stopped by removing supernatants, washing once with 100 μL assay buffer and replacing with 50 μL lysis buffer. The cell monolayer was frozen at −80° C. for 30 minutes (or overnight).
The concentration of cAMP (cyclic adenosine monophosphate) in the cell lysate was determined using AlphaScreen™ methodology. The frozen cell plate was thawed for 20 minutes on a plate shaker then 10 μL of the cell lysate was transferred to a 96-well white plate. 40 μL of mixed AlphaScreen™ detection beads pre-incubated with biotinylated cAMP, was added to each well and the plate incubated at room temperature for 10 hours in the dark. The AlphaScreen™ signal was measured using an EnVision spectrophotometer (Perkin-Elmer Inc.) with the recommended manufacturer's settings. cAMP concentrations were determined by reference to a calibration curve determined in the same experiment using standard cAMP concentrations. Concentration response curves for agonists were constructed and data was fitted to a four parameter logistic equation to determine both the pEC50 and Intrinsic Activity.

β2 receptor = target: T2, β2 receptor (Homo sapiens, UniProt P07550); assay: Adrenergic β2 mediated cAMP production in H292 cells (AlphaScreen cAMP detection); format: cell-based; conditions: for pEC50: cAMP, test compounds incubated 10 minutes, 300 μM rolipram; for Intrinsic Activity: fraction relative to the maximum activity determined for formoterol, 10 minutes incubation
T2 construct: endogenous in cells; host or cells: H292 cells
T2 sequence (P07550 whole entry): as above
Method: H292 cells were grown in RPMI (Roswell Park Memorial Institute) medium containing, 10% (v/v) FBS (foetal bovine serum) and 2 mM L-glutamine. Cells were grown in 225 cm2 flasks containing 25 mL media in a humidified incubator at 37° C., 5% CO2. Cells were harvested from the flask and passaged at a 1 in 10 dilution once per week.
The media from flasks containing H292 cells was removed, rinsed with 10 mL PBS (phosphate buffered saline) and replaced with 10 mL Accutase™ cell detachment solution. Flasks were incubated for 15 minutes in a humidified incubator at 37° C., 5% CO2. The cell suspension was counted and the cells re-suspended in RPMI media (containing 10% (v/v) FBS and 2 mM L-glutamine) at 0.05×10^6 cells per mL. 5000 cells in 100 μL were added to each well of a tissue-culture-treated 96-well plate and the cells incubated overnight in a humidified incubator at 37° C., 5% CO2. The culture media was removed, washed twice with 100 μL assay buffer and replaced with 50 μL assay buffer. Cells were rested at room temperature for 20 minutes after which time 25 μL of rolipram (1.2 mM made up in assay buffer containing 2.4% (v/v) dimethylsulphoxide) was added. Cells were incubated with rolipram for 10 minutes after which time test compounds (made up as ×4 concentrated stocks in assay buffer containing 4% (v/v) dimethylsulphoxide) were added and the cells were incubated for 10 minutes at room temperature. Final rolipram concentration in the assay was 300 μM and final vehicle concentration was 1.6% (v/v) dimethylsulphoxide. The reaction was stopped by removing supernatants, washing once with 100 μL assay buffer and replacing with 50 μL lysis buffer. The cell monolayer was frozen at −80° C. for 30 minutes (or overnight).
The concentration of cAMP (cyclic adenosine monophosphate) in the cell lysate was determined using the AlphaScreen™ methodology. The frozen cell plate was thawed for 20 minutes on a plate shaker then 10 μL of the cell lysate was transferred to a 96-well white plate. 40 μL of mixed AlphaScreen™ detection beads (containing equal volumes of donor beads (pre-incubated with biotinylated cAMP in the dark for 30 minutes) and acceptor beads), was added to each well and the plate incubated at room temperature for 10 hours in the dark. The AlphaScreen™ signal was measured using an EnVision spectrophotometer (Perkin-Elmer Inc.) with the recommended manufacturer's settings. cAMP concentrations were determined by reference to a calibration curve determined in the same experiment using standard cAMP concentrations (made up in lysis buffer in a 96-well tissue-culture-treated plate and frozen/thawed alongside the test samples) and detected using the same protocol. Concentration response curves for agonists were constructed to determine both the pEC50 and Intrinsic Activity.

[1] = target: T3, recombinant human Dopamine Subtype D2s receptors (Homo sapiens, UniProt P14416); assay: Dopamine D2 selectivity assay, inhibition of [3H]-spiperone binding; conditions: membranes, [3H]-spiperone 0.16 nM; read-out: D2 bind pIC50 (converted)
T3 construct: purchased Perkin Elmer
T3 sequence (P14416 1-414 isoform P14416-2): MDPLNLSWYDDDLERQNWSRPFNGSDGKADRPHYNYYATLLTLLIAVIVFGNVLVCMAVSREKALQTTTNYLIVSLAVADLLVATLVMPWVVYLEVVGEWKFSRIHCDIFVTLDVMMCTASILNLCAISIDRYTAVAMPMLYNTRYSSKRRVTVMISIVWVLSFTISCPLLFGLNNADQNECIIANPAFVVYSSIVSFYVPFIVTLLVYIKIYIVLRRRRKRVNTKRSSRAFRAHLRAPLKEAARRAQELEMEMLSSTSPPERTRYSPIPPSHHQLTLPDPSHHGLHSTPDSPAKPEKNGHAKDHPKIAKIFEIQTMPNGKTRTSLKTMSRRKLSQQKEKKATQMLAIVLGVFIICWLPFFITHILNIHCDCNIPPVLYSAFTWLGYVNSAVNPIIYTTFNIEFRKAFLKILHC
Method: Membranes containing recombinant human Dopamine Subtype D2s receptors were obtained from Perkin Elmer. These were diluted in Assay Buffer ([…] HEPES, 1 mM EDTA, 120 mM NaCl, 0.1% gelatin, pH 7.4) to provide a final concentration of membranes that gave a clear window between maximum and minimum specific binding.
Assays were performed in U-bottomed 96-well polypropylene plates. […] For each assay plate 8 replicates were obtained for [^3H]-spiperone binding in the presence of 30 μL vehicle (10% (v/v) DMSO in Assay Buffer; defining maximum binding) or 30 μL Haloperidol (10 μM final concentration; defining non-specific binding (NSB)). Membranes were then added to achieve a final volume of 300 μL. The plates were incubated for 2 hours at room temperature and then filtered onto PEI coated GF/B filter plates, pre-soaked for 1 hour in Assay Buffer, using a 96-well plate Tomtec cell harvester. Five washes with 250 μL wash buffer (50 mM HEPES, 1 mM EDTA, 120 mM NaCl, pH 7.4) were performed at 4° C. to remove unbound radioactivity. The plates were dried then sealed from underneath using Packard plate sealers and MicroScint-O (50 μL) was added to each well. The plates were sealed (TopSeal A) and filter-bound radioactivity was measured with a scintillation counter (TopCount, Packard BioScience) using a 3-minute counting protocol. Total specific binding (B0) was determined by subtracting the mean NSB from the mean maximum binding. NSB values were also subtracted from values from all other wells.

| SMILES | EC50 (Adrenergic β2) [nM] | β2 Int Act (Adrenergic β2) | pEC50 (β2 receptor) | Intrinsic Activity (β2 receptor) | IC50 [1] [nM] |
| --- | --- | --- | --- | --- | --- |
| Cl.O=c1[nH]c2c(O)ccc([C@@H](O)CNCCCSCCCOCCc3ccc(Br)cc3)c2s1 [Example 5, 7-((1R)-2-{[3-({3-[2-(4-Bromophenyl)ethoxy]propyl}thio)propyl]amino}-1-hydroxyethyl)-4-hydroxy-1,3-benzothiazol-2(3-H)-one hydrochloride] | 0.0501 | 0.9 | 10.20 | 0.7 | – |
| Cl.O=c1[nH]c2c(O)ccc([C@@H](O)CNCCSCCCOCCc3ccccc3)c2s1 [Example 8, 4-Hydroxy-7-{(1R)-1-hydroxy-2-[(2-{[3-(2-phenylethoxy)propyl]thio}-ethyl)amino]ethyl}-1,3-benzothiazol-2(3H)-one hydrochloride] | – | 1 | – | 1.0 | 1000 |
| CN(CCCSCCNC[C@H](O)c1ccc(O)c2[nH]c(=O)sc12)CCc1ccccc1 [Example 12, 4-Hydroxy-7-((1R)-1-hydroxy-2-{[2-({3-[methyl(2-phenylethyl)amino]propyl}-thio)ethyl]amino}ethyl)-1,3-benzothiazol-2(3H)-one trifluoroacetate] | 3.16 | 1 | 8.30 | 0.8 | – |
